“And” between values parts separate entries of the source, which are not always exact repeats. Equal entries are not always repeated. Where two headings read alike, the source gives them in different places.
What was measured:
[1] = target: T1, Recombinant human JAK1 catalytic domain (Homo sapiens, UniProt P23458); test: JAK1 Ulight-JAK1 peptide assay; assay type: biochemical
T1 construct: amino acids 866-1154; catalog number PV4774; purchased Invitrogen PV4774
Procedure: Recombinant human JAK1 (catalytic domain, amino acids 866-1154; catalog number PV4774) was purchased from Invitrogen. 1 ng of JAK1 was incubated with 20 nM Ulight-JAK1(tyr1023) peptide (Perkin Elmer catalog number TRF0121) in kinase reaction buffer (15 mM MOPS pH6.8, 0.01% Brij-35, 5 mM MgCl2, 2 mM DTT, 7 μM ATP) with or without 4 μL containing test compound or vehicle (DMSO, 1% final concentration), in a total volume of 20 μL, in a white 384 Opti plate (Perkin Elmer, catalog number 6007290). […] Readout was performed using the Envision with excitation at 320 nm and measuring emission at 615 nm (Perkin Elmer). Kinase activity was calculated by subtracting relative fluorescence units (RFU) obtained in the presence of a positive control inhibitor (10 μM staurosporine) from RFU obtained in the presence of vehicle. The ability of a test compound to inhibit this activity was determined as:
Percentage inhibition=((RFU determined for sample with test compound present−RFU determined for sample with positive control inhibitor) divided by (RFU determined in the presence of vehicle−RFU determined for sample with positive control inhibitor))*100.
A dose dilution series was prepared for the compound enabling the testing of dose-response effects in the JAK1 assay and the calculation of the IC50 for the compound. […] The data were expressed as the average IC50 from the assays±standard error of the mean.

[2] = system: IL-2-induced STAT5 phosphorylation (JAK1/JAK3 pathway); test: Human whole blood assay (hWBA), IL-2 stimulation, phospho-STAT5 on CD4+ cells; assay type: cell-based; conditions: 5 different donors
Procedure: A flow cytometry analysis was performed to establish JAK1 over JAK2 compound selectivity ex vivo using human whole blood. Therefore, blood is taken from human volunteers who gave informed consent. Blood is then equilibrated for 30 min at 37° C. under gentle rocking, then aliquoted in Eppendorf tubes. Compound is added at different concentrations and incubated at 37° C. for 30 min under gentle rocking and subsequently stimulated for 20 min at 37° C. under gentle rocking with interleukin 6 (IL-6) for JAK1-dependent pathway stimulation, Interferon alpha (IFNα) for JAK1/TYK2 pathway stimulation, interleukin 2 (IL-2) for JAK1/JAK3 pathway stimulation or GM-CSF for JAK2-dependent pathway stimulation. Phospho-STAT1 (for IL-6- and IFNα-stimulated cells) and phospho-STAT5 (for IL-2- and GM-CSF-stimulated cells) levels are then evaluated using FACS analysis. […]
Cells were then washed once with 1×PBS and analyzed on a FACSCanto II flow cytometer (BD Biosciences).
50,000 total events were counted and Phospho-STAT1 positive cells were measured after gating on CD4+ cells, in the lymphocyte gate for IL-6- and IFNα-stimulated cells. Phospho-STAT5 positive cells were measured after gating on CD4+ cells, in the lymphocyte gate for IL-2-stimulated cells. Phospho-STAT5 positive cells were measured after gating on CD33+ cells. […]

T1 sequence (P23458 866-1154): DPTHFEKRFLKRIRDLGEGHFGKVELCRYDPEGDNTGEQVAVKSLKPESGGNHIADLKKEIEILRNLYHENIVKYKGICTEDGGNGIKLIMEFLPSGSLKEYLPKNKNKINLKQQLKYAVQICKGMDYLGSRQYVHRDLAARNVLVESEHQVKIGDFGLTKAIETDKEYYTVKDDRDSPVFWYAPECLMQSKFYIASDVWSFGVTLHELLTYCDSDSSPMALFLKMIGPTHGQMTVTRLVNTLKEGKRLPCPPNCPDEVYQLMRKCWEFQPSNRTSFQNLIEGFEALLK

In the case of `Nc1nc2cccc(-c3ccc(CN4CCS(=O)(=O)CC4)cc3)n2n1` [Formula I, 5-[4-(1,1-Dioxothiomorpholin-4-ylmethyl)-phenyl]-[1,2,4]triazolo[1,5-a]pyridin-2-ylamine], the IC50 ([1]; average, read-out: IC50 (average)) is reported as 0.307 µM, the IC50 ([1]; individual determinations, read-out: IC50) is reported as 0.347 µM and 0.355 µM and 0.222 µM and 0.714 µM and 0.167 µM and 0.103 µM and 0.187 µM and 0.582 µM and 0.295 µM and 0.242 µM and 0.159 µM and the IC50 [2] is reported as 19.6 µM.
